Publication PMC6696179, “Structural Optimization and Structure–Activity Relationship of 4-Thiazolidinone Derivatives as Novel Inhibitors of Human Dihydroorotate Dehydrogenase” (Molecules, 2019)

Experiments:
hDHODH = target: T1, hDHODH (Homo sapiens, UniProt Q02127); test: hDHODH enzyme inhibition assay (DCIP/UQ0, dihydroorotate-initiated); assay type: biochemical; details: for inhibition at 10 µM: compound at 10 µM, 10 nM purified hDHODH; for IC50: three independent tests, determined if inhibition at 10 μM was greater than 50%;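 on all read-outs here: recombinant hDHODH (Met30–Arg396) in HEPES pH 8.0 buffer with KCl and Triton X-100, reaction started by 500 µM dihydroorotate, inhibition from rate with inhibitor relative to uninhibited rate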
T1 construct: The plasmid pET-19b–hDHODH (Met30-Arg396) was transformed; inferred from the pET-19b vector and from purification on a chelating column with imidazole elution) (N); made in house; host or cells: E. coli BL21 (DE3)
T1 sequence (Q02127 29-395 limits assumed): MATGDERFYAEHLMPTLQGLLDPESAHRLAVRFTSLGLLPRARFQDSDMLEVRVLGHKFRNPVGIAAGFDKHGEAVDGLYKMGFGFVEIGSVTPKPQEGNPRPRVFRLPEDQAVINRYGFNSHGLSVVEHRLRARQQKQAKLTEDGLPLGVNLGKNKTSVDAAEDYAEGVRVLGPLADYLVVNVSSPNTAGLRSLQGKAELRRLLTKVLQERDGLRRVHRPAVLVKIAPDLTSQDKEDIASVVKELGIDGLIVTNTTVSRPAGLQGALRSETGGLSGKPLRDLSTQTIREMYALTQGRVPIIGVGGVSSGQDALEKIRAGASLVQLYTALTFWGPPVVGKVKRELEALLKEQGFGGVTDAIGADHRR
Method: The purified hDHODH was diluted into a final concentration of 10 nM with the assay buffer contained 50 mM HEPES pH 8.0, 150 mM KCl, 0.1% Triton X-100. […] The dihydroorotate was added to a final concentration of 500 μM to initiate the reaction. […] Inhibition rate was calculated from (1-Vi/V0) × 100. For the determination of the IC50 values, eight to nine different concentrations were applied. Each inhibitor concentration point was tested in triplicate. IC50 values were calculated using the sigmoidal fitting option of the program Origin 8.0.

Row | hDHODH inhibitory activity in words (hDHODH) | inhibition at 10 µM (hDHODH) [%] | IC50 (hDHODH) [µM] | melting point [°C] | SMILES
1 | inactive | 38.2 | > 10 | 285 to 286 | COC(=O)/C(C#N)=C1\SCC(=O)N1c1ccc(C(=O)Nc2ccc3ccccc3c2)cc1 [Compound 38, Methyl (Z)-2-cyano-2-(3-(4-(naphthalen-2-ylcarbamoyl)phenyl)-4-oxothiazolidin-2-ylidene)acetate]
2 |  | 55.4 | 5.01 | 268.9 to 269.7 | COC(=O)/C(C#N)=C1\SCC(=O)N1c1ccc(C(=O)Nc2ccc(OC)cc2)cc1 [Compound 36, Methyl (Z)-2-cyano-2-(3-(4-((4-methoxyphenyl)carbamoyl)phenyl)-4-oxothiazolidin-2-ylidene)acetate]
3 |  | 44 | > 10 | 205.7 to 206.6 | COC(=O)/C(C#N)=C1\SCC(=O)N1c1ccc(C(=O)NCc2cccc(C(=O)O)c2)cc1 [Compound 43, (Z)-3-((4-(2-(1-cyano-2-methoxy-2-oxoethylidene)-4-oxothiazolidin-3-yl)benzamido)methyl) benzoic acid]
4 |  | 29.7 | > 10 | 159.7 to 161.3 | COC(=O)/C(C#N)=C1\SCC(=O)N1c1ccc(Oc2cccc(C(F)(F)F)c2)cc1 [Compound 21]
5 |  | 71.3 | 3.01 | 231.7 to 232.5 | COC(=O)/C(C#N)=C1\SCC(=O)N1c1ccc(C(=O)Nc2ccc(F)cc2)cc1 [Compound 30, Methyl (Z)-2-cyano-2-(3-(4-((4-fluorophenyl)carbamoyl)phenyl)-4-oxothiazolidin-2-ylidene)acetate]
6 |  | 47 | > 10 | 274.1 to 275 | COC(=O)/C(C#N)=C1\SCC(=O)N1c1ccc(C(=O)Nc2ccccc2C)cc1 [Compound 29, Methyl (Z)-2-cyano-2-(4-oxo-3-(4-(o-tolylcarbamoyl)phenyl)thiazolidin-2-ylidene)acetate]
7 |  | 36.2 | > 10 | 233.2 to 234.1 | COC(=O)/C(C#N)=C1\SCC(=O)N1c1ccc(OCc2cccc(C(=O)O)c2)cc1 [Compound 26, (Z)-3-((4-(2-(1-Cyano-2-methoxy-2-oxoethylidene)-4-oxothiazolidin-3-yl)phenoxy)methyl)benzoic acid]
8 |  | 44.7 | > 10 | 181.2 to 182.1 | COC(=O)/C(C#N)=C1\SCC(=O)N1c1ccc(Oc2ccccc2OC)cc1 [Compound 20, Methyl (Z)-2-cyano-2-(3-(4-(2-methoxyphenoxy)phenyl)-4-oxothiazolidin-2-ylidene)acetate]
